One may read the IC50 as the point on the concentration scale where inhibition reaches its midpoint. Higher therefore signals lower potency.

The test system of one assay is Her-2 sheddase. Kind of assay: Her-2 ECD ELISA of BT474 culture supernatants (Her-2 sheddase inhibition). The assay is classed as cell-based, human. As for the experimental part: (§1) BT474 cells were seeded in 100 μL of RPMI medium containing 10% FCS+10 μg/ml insulin in 96 well plates at 2×10^4 cells/well. The cells were incubated overnight at 37° C. The following morning, the media was removed and 100 μL of fresh media with or without compound was added back. The cells were incubated for about 72 hours at 37° C. After about 72 hours, the supernatants were removed. The samples were diluted 1:10 and analyzed using a commercially available Her-2 ELISA kit per manufacturer's instructions (Oncogene Research, catalog #QIA 10).
These inhibitors were added, at varying concentrations, to cultures of BT474 cells, a Her-2 overexpressing breast cancer cell line known to enzymatically process cell surface Her-2 (p185) and release the extracellular domain (ECD) into the culture supernatant, i.e., shedding of ECD. After 72 hours, cell culture supernatants were harvested and assayed for Her-2 ECD content using an ELISA assay.
On the technique in general: An ELISA detects its analyte on a solid surface through an enzyme-linked reagent.

Assay [1] deals with Her-2 cleavage in BT-474 cells. Kind of assay: Western blot of Her-2 ECD (105 kDa) in culture supernatants. Type of assay: cell-based, human. On the technique in general: A western blot detects proteins with antibodies after separation by electrophoresis.
Assay [2] relates to Her-2 cleavage in SK-BR3 cells. Described as above. The settings on record: varying concentrations. Type of assay: cell-based, human.
For assay [3], the system named is Her-2 cleavage in a primary breast tumor cell line that over expresses Her-2. Kind of assay: Shed Her-2 ECD in primary breast tumor cell culture. The assay is classed as cell-based, human. The settings on record: primary breast tumor cell line over expressing Her-2. As for the experimental part:
Tumor specimens were obtained by Oncotech (Tustin, Calif.) according to their IRB approved protocol using standard procedures known in the art. Cell cultures were maintained in tissue culture flasks. Cells intended for experimental treatment were harvested in log phase with EDTA and were plated at a density of 1×10^5 cells/well in 24-well polystyrene plates in 0.5 ml RPMI with 10% FCS. Experiments to determine the effects of MPIs on shed Her-2 receptor were performed as described below for BT-474 cells.
as §1

For assay [4], the system named is AKT and ERK phosphorylation in BT474 cells. Kind of assay: Western blot of phospho-ERK and phospho-AKT. The assay is classed as cell-based, human. As for the experimental part: In experiments to determine the effects of MPI treatment on cell signaling, BT474 cells were plated at 1×10^5 cells/mL in 2 mL of media (RPMI+10% FCS+10 μg/mL insulin) in 12-well plates. […] After 5 days, the cells were harvested, lysed in 200 μL ice-cold lysis buffer containing 10 mM Tris, pH 7.2, 150 mM NaCl, 1% Triton X-100, 1% deoxycholic acid, 0.1% SDS, 50 μg/mL leupeptin, 50 μg/mL aprotinin, 1 mM sodium vanadate, 50 mM sodium fluoride, 1 mM PMSF. After 10 minutes on ice, the samples were microfuged at 13,000 rpm for 10 minutes at 4° C. and the supernatants collected. For analysis, 15 μL of 2× Laemmli sample buffer (BioRad, cat#161-0737) was added to 15 μL of extract, samples boiled for 5 minutes and loaded onto 12-well 12% Tris-Glycine gels (Novex, cat# EC60052). Gels were run in 1× Tris-Glycine-SDS buffer (Gibco BRL) using Novex minigel apparatus for approximately 1.5 hours. Following electrophoresis, proteins were transferred onto PVDF membrane (NEN, cat#NEF1000) in 1× Tris-Glycine buffer (Biorad, cat#161-0734) containing 20% MeOH for 2-3 hours using BioRad miniblot transfer system. After transfer, membranes were blocked in PBS+5% milk+0.1% Tween-20 for 1 h at RT. […]
Phosphorylation of AKT and the MAP kinase ERK were monitored by western blot analysis using phospho-specific antibodies.

The test system of assay [5] is AKT and ERK phosphorylation in MCF7 cells. Kind of assay: Western blot of phospho-ERK and phospho-AKT. Type of assay: cell-based, human. The settings on record: Her-2 non-overexpressing MCF7 cells.
The subject of assay [6] is BT-474-SC1 tumor xenografts. Kind of assay: Tumor volume in BT-474-SC1 xenograft model. Type of assay: in vivo, mice. Here is the method:
For the BT-474-SC1 tumor model (see Results below), slow-release estrogen pellets (Innovative Research of America) were inserted subcutaneously (s.c.) into the flank of each mouse 24 hours prior to tumor cell inoculation. Balb/C nude and SCID-bg mice were obtained from Charles River Laboratories. Cells were harvested from their tissue culture plates, counted, centrifuged, and resuspended in serum free growth media and BD Matrigel™ at a 1:1 ratio immediately prior to implantation. In either one or two locations, 1−2×10^7 viable BT-474-SC1 cells were injected s.c. into the upper flank of each mouse. For all models, tumors were measured on a weekly basis and their volumes calculated using the formula [volume=(length×width^2)÷2]. Once the mean tumor volume of the required number of mice reached the desired size (usually >150 mm^3), they were randomized into treatment groups usually containing between 6 and 12 mice. Animals were then treated with compound or vehicle (10% DMAC, 30% propylene glycol) by mini-osmotic pump (Alzet, Cupertino, Calif.) implanted i.p. or s.c. for 7 to 28 days to achieve the desired compound exposure—controlled by altering the pump flow rate and/or the concentration of compound inside the pumps. Tumor size and body weights (a measure of animal health) were monitored weekly. Blood samples were also drawn (retro-orbital) while the osmotic pumps were functional and plasma was separated by centrifugation and stored at −80° C. for later pharmacokinetic and/or ELISA analysis, to determine the levels of circulating Her-2 ECD (described above). Note that in experiments designed to evaluate the effects of compound treatment on levels circulating Her-2 ECD, blood samples were drawn on the day osmostic pumps were implanted (day 0) and then again six days later (day 6).

For a further assay, the system named is circulating Her-2 ECD. Kind of assay: Plasma Her-2 ECD ELISA in BT-474-SC1 xenograft mice. The assay is classed as in vivo. As for the experimental part:
For the BT-474-SC1 tumor model (see Results below), slow-release estrogen pellets (Innovative Research of America) were inserted subcutaneously (s.c.) into the flank of each mouse 24 hours prior to tumor cell inoculation. Balb/C nude and SCID-bg mice were obtained from Charles River Laboratories. Cells were harvested from their tissue culture plates, counted, centrifuged, and resuspended in serum free growth media and BD Matrigel™ at a 1:1 ratio immediately prior to implantation. In either one or two locations, 1−2×10^7 viable BT-474-SC1 cells were injected s.c. into the upper flank of each mouse. For all models, tumors were measured on a weekly basis and their volumes calculated using the formula [volume=(length×width^2)÷2]. Once the mean tumor volume of the required number of mice reached the desired size (usually >150 mm^3), they were randomized into treatment groups usually containing between 6 and 12 mice. […] Tumor size and body weights (a measure of animal health) were monitored weekly. […]
To measure levels of circulating Her-2 ECD in mice, plasmas were isolated from the blood samples described above and analyzed shortly after harvesting or stored frozen at −80° C. until analysis. To assess Her-2 ECD levels, plasma samples were diluted 1:5 and analyzed using a commercially available Her-2 ELISA kit per manufacturer's instructions (Oncogene Research, catalog #QIA10). […]

On to `COc1ccc(S(=O)(=O)N2Cc3ccccc3C[C@@H]2C(=O)NO)cc1` [Compound 4, (3R)-N-hydroxy-2-((4-methoxyphenyl)sulfonyl)-1,2,3,4-tetrahydroisoquinoline-3-carboxamide], for which the “inhibition of Her-2 cleavage (ECD processing), ELISA” value with Her-2 sheddase (BT-474 cells, 72 hours) is given as “inhibition of Her-2 cleavage”. The “inhibition of Her-2 cleavage, Western blot” value in assay [1] (MPI alone, varying concentrations) is given as “inhibition of Her-2 cleavage”; in assay [2], “inhibition of Her-2 cleavage”. Moreover, the “blocking Her-2 cleavage, MPI in combination with Herceptin” value in assay [1] (combination with Herceptin) is “additive effect”. For the same compound, in assay [3], the “inhibition of Her-2 cleavage” value was “inhibition of Her-2 cleavage”. For the same compound, the “phosphorylation of both AKT and ERK” value in assay [4] (sheddase inhibitor in combination with 0.2 μg/ml Herceptin) is on record as “detectable reduction in phosphorylation”. The “AKT or ERK phosphorylation, single agent” value in assay [4] (sheddase inhibitor less than 5 μM alone or 0.2 μg/ml Herceptin alone) is listed as “did not demonstrate a detectable effect”. Besides, the “AKT and MAP kinase pathways” value in assay [5] is “not impacted”.
Consider `CC1(C)SCCN(S(=O)(=O)c2ccc(Oc3ccncc3)cc2)[C@H]1C(=O)NO` [Compound 7, Prinomastat, reference compound], for which the IC50 in the assay with Her-2 sheddase was 20 to 100 nM.
With `O=C(NO)[C@H]1CC2(CC2)CN[C@@H]1C(=O)N1CC=C(c2ccccc2)CC1` [Compound 3, (6S,7S)-6-{[4-phenyl-3,6-dihydropyridin-1(2H)-yl]carbonyl}-N-hydroxy-5-azaspiro[2.5]octane-7-carboxamide], the “tumor growth over a 28-day period” value in assay [6] (BT474-SC1 model, vehicle tumors tripled in size) is “complete suppression of tumor growth”.
In the case of `COC(=O)N1CC2(CC2)C[C@H](C(=O)NO)[C@H]1C(=O)N1CCN(c2ccccc2)CC1` [Compound 2, methyl (6S,7S)-7-[(hydroxyamino)carbonyl]-6-[(4-phenylpiperazin-1-yl)carbonyl]-5-azaspiro[2.5]octane-5-carboxylate], the “level of circulating ECD on day 6 compared to vehicle” value in the assay on circulating Her-2 ECD (BT-474-SC1 tumor bearing mice, osmotic pump, p<0.0001) was “significantly lower”. Further, the “magnitude of change in ECD” value in the assay on circulating Her-2 ECD (day 6) is listed as 56%. For the same compound, the “tumor size on day 6 compared to vehicle” value in assay [6] (BT474-SC1 xenograft, p=0.0001) is “significantly smaller”. Moreover, in assay [6] (day 6), the “magnitude of change in tumor volume” value turned out to be 27% and the “partial remission (greater than a 25% reduction in tumor volume)” value is given as “multiple tumors demonstrated a partial remission”.

The record behind these values is US9345677B2, “Compositions, methods and kits relating to HER-2 cleavage” (Incyte Corporation, priority 2003, dated 2016).
